Measurements from article PMC4969531, “Enhanced Absorption Study of Ginsenoside Compound K (20-O-β-(D-Glucopyranosyl)-20(S)-protopanaxadiol) after Oral Administration of Fermented Red Ginseng Extract (HYFRG™) in Healthy Korean Volunteers and Rats” (Evidence-based Complementary and Alternative Medicine : eCAM, 2016).

Columns and labels:
[1] = Stability of compound K working stock solution in methanol; type: physicochemical; details: n = 3
Protocol: Stock solutions of compound K and IS were prepared separately by dissolving the accurately weighed compounds in methanol for a final concentration of 1000 μg/mL. The prepared stock solutions were stored in −80°C when not in use. Working solutions of compound K were prepared by serial dilution of the stock solution in methanol. Calibration standards were prepared by spiking 10 μL of the appropriate standard solutions to 190 μL of blank plasma for concentrations of 1, 5, 10, 50, 100, 500, and 1000 ng/mL. QC samples were prepared in the same manner as the calibration standards, for low, middle, and high concentrations of 3, 300, and 800 ng/mL. IS working solution (5 μg/mL) for routine use was freshly prepared by diluting IS stock solution in methanol. The standard and QC samples were extracted on each analysis run using the same procedure described below. […] The specificity of the method towards endogenous plasma matrix substances was assessed in double blank human plasma (without compound K and IS). […] Then, the chromatograms obtained from the sample spiked with compound K at lower limit of quantitation (LLOQ) and IS and actual plasma samples from a volunteer after oral administration of compound K were compared with those obtained from blank samples. The calibration curve was constructed by plotting the peak area ratios (y) of compound K to IS against the spiked concentrations (x) of compound K. Linearity was assessed by weighted (1/x) least squares regression analysis. […] It should be quantified with an acceptable bias within ±20% and a CV no greater than 20%. The LLOQ was determined as the concentrations with a signal to noise (S/N) ratio of 10. […] Precision is expressed as a coefficient of variance (CV) at each concentration. The accuracy of the assay was defined as a percentage of the measured concentration over the theoretical concentration. The acceptance criterion recommended by KFDA and USFDA for each back-calculated standard concentration is 20% deviation from the nominal for LLOQ and 15% for all others (KFDA 2013, USFDA 2013). […]

[2] = Stability of compound K in human plasma (bench-top, refrigerator, freezer, freeze-thaw, extracted samples); type: in vitro ADME; details: n = 3; for Stability of extracted, autosampler (4°C), 20 h: extracted plasma sample; for Compound K in plasma, 4°C, 17 h / Compound K in plasma, room temperature, 17 h / Compound K in plasma, −80°C, 17 h / Freeze-thaw stability, three cycles, −80°C: human plasma
Protocol: The LC-MS/MS method to determine compound K in human and rat plasma was validated and established in terms of specificity, sensitivity, linearity, accuracy, precision, recovery, matrix effect, and stability according to the bioanalytical method validation guidelines published by Korea Food and Drug Administration (KFDA) and USFDA [23, 24]. The specificity of the method towards endogenous plasma matrix substances was assessed in double blank human plasma (without compound K and IS). Double blank samples from six different lots of human blank plasma were tested for the presence of endogenous substances, which may interfere with compound K and IS using described above procedures and chromatographic/spectroscopic conditions. Then, the chromatograms obtained from the sample spiked with compound K at lower limit of quantitation (LLOQ) and IS and actual plasma samples from a volunteer after oral administration of compound K were compared with those obtained from blank samples. The calibration curve was constructed by plotting the peak area ratios (y) of compound K to IS against the spiked concentrations (x) of compound K. Linearity was assessed by weighted (1/x) least squares regression analysis. LLOQ was defined as the lowest concentration on the calibration curve. It should be quantified with an acceptable bias within ±20% and a CV no greater than 20%. The LLOQ was determined as the concentrations with a signal to noise (S/N) ratio of 10. The intra- and interday precision and accuracy assessments were performed on the same day (n = 5, at each concentration) and on three consecutive days at four concentrations ([…]). Precision is expressed as a coefficient of variance (CV) at each concentration. The accuracy of the assay was defined as a percentage of the measured concentration over the theoretical concentration. The acceptance criterion recommended by KFDA and USFDA for each back-calculated standard concentration is 20% deviation from the nominal for LLOQ and 15% for all others (KFDA 2013, USFDA 2013). The relative recovery, absolute matrix effect, and process efficiency were determined at three QC concentrations (3, 300, and 800 ng/mL, n = 3) of compound K and IS (500 ng/mL, n = 9). The relative recovery was measured by comparing the peak areas obtained from plasma samples spiked before extraction with those from plasma samples spiked after extraction. The absolute matrix effect was measured by comparing the peak response of plasma samples spiked after extraction with that of pure standards containing equivalent amounts of compound K and IS prepared in mobile phase. The process efficiency wasmeasured by comparing the peak response of plasma samples spiked before extraction with that of the pure standards containing equivalent amounts of compound K and IS prepared in mobile phase. […] The predicted concentrations of compound K at 3, 300, and 800 ng/mL samples differed by not more than 15% of the nominal concentrations in a set of stability tests, namely, in injector (20 h), bench-top (17 h), three repeated freeze-thaw cycles, and freezer stability at −80°C for 17 h. […] Although several analytical methods have been used to determine compound K concentrations in human plasma with LC-MS/MS using solid phase extraction or protein precipitation, we developed the fully validated analytical method optimized for our laboratory settings to meet both KFDA and USFDA guidelines for validating a bioanalytical method. Our analytical method was successfully used to evaluate the comparative pharmacokinetics of two red ginseng HYFRG or RG extracts in Koreans.

- Working stock solution stability, room temperature, 6 h ([1]; nominal 3 ng/mL): 89.08 ± 3.89%
- Working stock solution stability, room temperature, 6 h ([1]; nominal 300 ng/mL): 89.11 ± 7.13%
- Working stock solution stability, room temperature, 6 h ([1]; nominal 800 ng/mL): 96.13 ± 7.43%
- Stability of extracted, autosampler (4°C), 20 h ([2]; nominal 3 ng/mL): 110.43 ± 12.89%
- Compound K in plasma, 4°C, 17 h ([2]; nominal 3 ng/mL): 112.11 ± 5.08%
- Compound K in plasma, room temperature, 17 h ([2]; nominal 3 ng/mL): 110.12 ± 3.01%
- Compound K in plasma, −80°C, 17 h ([2]; nominal 3 ng/mL): 115.04 ± 2.66%
- Freeze-thaw stability, three cycles, −80°C ([2]; nominal 3 ng/mL): 109.09 ± 7.07%
- Stability of extracted, autosampler (4°C), 20 h ([2]; nominal 300 ng/mL): 102.96 ± 4.83%
- Compound K in plasma, 4°C, 17 h ([2]; nominal 300 ng/mL): 110.62 ± 2.31%
- Compound K in plasma, room temperature, 17 h ([2]; nominal 300 ng/mL): 106.83 ± 3.20%
- Compound K in plasma, −80°C, 17 h ([2]; nominal 300 ng/mL): 108.30 ± 1.60%
- Freeze-thaw stability, three cycles, −80°C ([2]; nominal 300 ng/mL): 109.70 ± 2.38%
- Stability of extracted, autosampler (4°C), 20 h ([2]; nominal 800 ng/mL): 103.46 ± 3.48%
- Compound K in plasma, 4°C, 17 h ([2]; nominal 800 ng/mL): 107.40 ± 2.45%
- Compound K in plasma, room temperature, 17 h ([2]; nominal 800 ng/mL): 107.54 ± 0.20%
- Compound K in plasma, −80°C, 17 h ([2]; nominal 800 ng/mL): 104.95 ± 1.42%
- Freeze-thaw stability, three cycles, −80°C ([2]; nominal 800 ng/mL): 106.13 ± 5.46%
SMILES: CC(C)=CCCC(C)(OC1OC(CO)C(O)C(O)C1O)C1CCC2(C)C1C(O)CC1C3(C)CCC(O)C(C)(C)C3CCC12C [Compound K, 20-O-β-(D-glucopyranosyl)-20(S)-protopanaxadiol]
